Measurements from article PMC6470523, “Introduction of Nonacidic Side Chains on 6-Ethylcholane Scaffolds in the Identification of Potent Bile Acid Receptor Agonists with Improved Pharmacokinetic Properties” (Molecules, 2019).
Converted amounts (≈) assume the structure as drawn.

Experiments:
[1] = Liver microsomal stability; format: in vitro ADME, mouse; conditions: liver microsomes; for microsomal CLint at 1 µM / half-life at 1 µM: male, CD-1, mouse, pH 7.4, 1 μM compound, 37 °C; for half-life at 1 µM: read-out: t½
Description: (§1) Chromatography was performed using an Alliance pump system coupled to a Q-ToF Premiere (Waters Co., Milford, MA, USA). The mixture was separated on a Luna 5 µm C8(2) 100° A 150 × 2 mm from Phenomenex. The mobile phase consisted of 0.2% formic acid (FA) in water as solvent A and 0.2% FA in acetonitrile as solvent B at a flow rate of 200 μL/min. The gradient was as follows: 0–2 min (70% A and 30% B), 2–20 min (5% A and 95% B), 20–30 min (70% A and 30% B). The detection of analytes was achieved by electrospray ionization (ESI) in the positive mode with the appropriate MS/MS transitions, if necessary.
Male mouse (CD-1) liver microsomes (Sigma-Aldrich, St. Louis, MO, USA) were used. All incubations were performed in duplicate in a shaking water bath at 37 °C. The incubation mixtures contained 1 μM compound with 1% DMSO used as a vehicle, mouse liver microsomes (0.3 mg of microsomal protein per mL), 5 mM MgCl2, 1 mM NADP, 5 mM glucose 6-phosphate, 0.4 U·mL^−1 glucose 6-phosphate dehydrogenase, and 50 mM potassium phosphate buffer (pH 7.4) in a final volume of 0.5 mL. Aliquots were removed at 0, 5, 10, 20, 30, and 40 min after microsome addition and the reaction was stopped by adding 200 μL of ice-cold acetonitrile. After two hours, the samples were centrifuged for 10 min at 10,000 rpm, and the supernatants were transferred in matrix tubes for LC-MS/MS analysis. LC-MS/MS analysis were carried out setting the m/z window around the value of the MH^+ of the unmodified compounds.
Propranolol, known as a high hepatic clearance drug in rodents, was used as a quality-control compound for the microsomal incubations. The slope of the linear regression of the curve obtained reporting the natural logarithm of compound area versus incubation time (−k) was used in the conversion to in vitro t1/2 values by t1/2 = −ln(2)/k. In vitro intrinsic clearance (Clint expressed as μL/min/mg) was calculated according to the following formula: Clint = volume of reaction (µL)/t1/2(min)/protein of liver microsomes (mg). The percentage of unmodified compound has been calculated assuming the area of the compound peak at time 0 min as 100%.

[2] = Aqueous solubility measurement (PBS pH 7.4, LC-MS); format: physicochemical; conditions: aqueous buffer, kinetic from dmso stock; aqueous solubility at pH 7.4 (PBS), 24 h room temperature
Description: as §1
Ten microliters of a 10 mM solution in DMSO of each compound was diluted either in 490 μL of PBS pH 7.4 or in organic solvent MeOH (in triplicate). The tubes were gently shaken 24 h at room temperature, then centrifuged for 5 min at 4000 rpm. 10 microliters of sample were diluted in 490 μL of MeOH. The solubility is determined by the ratio of mass signal area PBS/organic solvent.

human GPBAR1 = target: T1, human GPBAR1 (Homo sapiens, UniProt Q8TDU6); experiment: GPBAR1 transactivation (CRE luciferase reporter) assay in HEK293T cells; format: cell-based; conditions: for GPBAR1 Eff (%) vs 6-ECDCA: maximum efficacy of compound (10 µM) relative to 6-ECDCA (1 µM) set as 100, CRE transactivation; for GPBAR1 Eff (%) vs TLCA: maximum efficacy of compound (10 µM) relative to TLCA (10 μM) set as 100, CRE transactivation
T1 construct: expressed in transfected cells; host or cells: HEK293T
T1 sequence (Q8TDU6 1-330): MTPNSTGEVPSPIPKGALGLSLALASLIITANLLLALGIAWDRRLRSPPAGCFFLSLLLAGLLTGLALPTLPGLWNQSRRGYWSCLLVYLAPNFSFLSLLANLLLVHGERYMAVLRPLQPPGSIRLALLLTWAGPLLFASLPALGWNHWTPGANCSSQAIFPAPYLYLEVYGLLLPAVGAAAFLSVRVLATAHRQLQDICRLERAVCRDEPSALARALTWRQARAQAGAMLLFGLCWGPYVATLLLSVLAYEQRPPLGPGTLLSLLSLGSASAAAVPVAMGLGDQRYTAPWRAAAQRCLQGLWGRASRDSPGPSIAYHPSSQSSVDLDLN
Description: (§2) To evaluate FXR mediated transactivation, HepG2 cells were transfected with 100 ng of human pSG5-FXR, 100 ng of human pSG5-RXR, 200 ng of the reporter vector p(hsp27)-TK-LUC containing the FXR response element IR1 cloned from the promoter of heat shock protein 27 (hsp27) and with 100 ng of pGL4.70 (Promega), a vector encoding the human Renilla gene. To evaluate GPBAR1 mediated transactivation, HEK293T cells were transfected with 200 ng of human pGL4.29 (Promega), a reporter vector containing a cAMP response element (CRE) that drives the transcription of the luciferase reporter gene luc2P, with 100 ng of pCMVSPORT6-human GPBAR1, and with 100 ng of pGL4.70. […] After treatments, 10 μL of cellular lysates were read using a Dual-Luciferase Reporter Assay System (Promega Italia srl, Milan, Italy) according manufacturer specifications using the Glomax20/20 luminometer (Promega Italia srl, Milan, Italy). Luciferase activities were assayed and normalized with Renilla activities.
(§3) At 18 h post stimulations, cellular lysates were assayed for luciferase and Renilla activities using the Dual-Luciferase Reporter Assay System (E1980, Promega Italia srl, Milan, Italy). Luminescence was measured using Glomax 20/20 luminometer (Promega Iralia srl, Milan, Italy). Luciferase activities were normalized with Renilla activities.

human FXR = target: T2, human FXR (Homo sapiens, UniProt Q96RI1); experiment: FXR transactivation luciferase reporter assay in HepG2 cells; format: cell-based; conditions: for FXR Eff (%) vs 6-ECDCA: maximum efficacy of compound (10 µM) relative to 6-ECDCA (1 µM) set as 100%; for FXR Eff (%) vs 6-ECDCA / FXR Eff (%) vs CDCA: FRE transactivation; for FXR Eff (%) vs CDCA: maximum efficacy of compound (10 µM) relative to CDCA (10 μM) set as 100%; for FXR activity (in words): transactivation assay
T2 construct: expressed in transfected cells; host or cells: HepG2
T2 sequence (Q96RI1 1-486): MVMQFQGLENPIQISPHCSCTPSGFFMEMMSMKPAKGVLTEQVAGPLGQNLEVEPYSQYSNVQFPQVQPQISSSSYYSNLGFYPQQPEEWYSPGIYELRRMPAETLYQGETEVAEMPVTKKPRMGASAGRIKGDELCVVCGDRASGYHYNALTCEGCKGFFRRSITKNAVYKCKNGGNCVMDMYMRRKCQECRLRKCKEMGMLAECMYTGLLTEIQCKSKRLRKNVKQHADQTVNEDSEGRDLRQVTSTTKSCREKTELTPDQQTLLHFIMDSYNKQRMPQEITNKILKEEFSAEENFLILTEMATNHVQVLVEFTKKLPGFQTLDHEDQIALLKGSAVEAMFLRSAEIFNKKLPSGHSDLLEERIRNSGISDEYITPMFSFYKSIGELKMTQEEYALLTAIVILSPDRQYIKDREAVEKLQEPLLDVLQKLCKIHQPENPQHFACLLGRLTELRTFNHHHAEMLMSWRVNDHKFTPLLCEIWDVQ
T2 sequence (P19793 1-462 partner): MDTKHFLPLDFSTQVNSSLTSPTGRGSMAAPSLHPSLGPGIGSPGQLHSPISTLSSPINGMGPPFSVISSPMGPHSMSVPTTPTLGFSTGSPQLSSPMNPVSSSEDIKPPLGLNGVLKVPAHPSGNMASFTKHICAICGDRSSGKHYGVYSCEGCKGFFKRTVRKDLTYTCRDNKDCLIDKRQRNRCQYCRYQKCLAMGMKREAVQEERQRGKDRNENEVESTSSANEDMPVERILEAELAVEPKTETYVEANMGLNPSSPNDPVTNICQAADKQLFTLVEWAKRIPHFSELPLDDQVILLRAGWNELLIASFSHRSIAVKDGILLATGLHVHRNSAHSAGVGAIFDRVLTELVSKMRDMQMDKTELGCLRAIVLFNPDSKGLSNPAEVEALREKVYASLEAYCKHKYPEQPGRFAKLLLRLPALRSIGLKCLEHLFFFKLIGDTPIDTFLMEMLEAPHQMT
Description: as §2, §3

Compound | Percentage of compound remaining in solution after 40 min incubation [1] [%] | microsomal CLint at 1 µM [1] [µL/min/mg] | half-life at 1 µM [1] [min] | solubility at 24 h [2] [µM] | GPBAR1 Eff (%) vs 6-ECDCA (human GPBAR1) [%] | GPBAR1 Eff (%) vs TLCA (human GPBAR1) [%] | FXR Eff (%) vs 6-ECDCA (human FXR; HepG2 cells) [%] | FXR Eff (%) vs CDCA (human FXR; HepG2 cells) [%] | FXR activity (in words) (human FXR) | EC50 (human GPBAR1; dose response 0.5 to 50 µM, 18 h) [nM] | EC50 (human FXR; dose response 0.5 to 50 µM, HepG2 cells, 18 h) [nM]
CC[C@H]1[C@@H](O)[C@@H]2[C@H](CC[C@]3(C)[C@@H]([C@H](C)CCC(=O)O)CC[C@@H]23)[C@@]2(C)CC[C@@H](O)C[C@@H]12 [6-ECDCA, 6-ethylchenodeoxycholic acid, reference compound] | 26.9 | 109 | 21.1 | 195 (≈ 82 µg/mL) | – | – | – | – | – | – | –
CCC(C)C1CCC2C3C(O)C(CC)C4CCCCC4(C)C3CCC12C (stereo not drawn) [compound 5, 6α-Ethyl-7α-hydroxy-23,24-dinor-5β-cholane] | – | – | – | – | 53.4 | 12 | 2.5 | 14 | inactive | – | –
CCC1C(O)C2C3CCC(C(C)CO)C3(C)CCC2C2(C)CCC(O)CC12 (stereo not drawn) [compound 3, 6α-Ethyl-3α, 7α -dihydroxy-23,24-dinor-5β-cholan-22-ol] | 60.6 | 36.6 | 63 | 210 (≈ 79.5 µg/mL) | 243.4 | 55 | 45 | 257 | – | 430 ± 15 | 2800 ± 450
C=CC(C)C1CCC2C3C(O)C(CC)C4CCCCC4(C)C3CCC12C (stereo not drawn) [compound 4, 6α-Ethyl-7α-hydroxy-24-nor-5β-chol-23-ene] | – | – | – | – | 68.8 | 15 | 3.1 | 17 | inactive | – | –
